# Reference: patent US11053204B2, “Pyrimidinyloxy benzene derivatives as herbicides” (FMC Corporation, priority 2015, dated 2021)
# How the values were obtained:
# Format in all cases: in vivo
# [1] = tested on: galium (catchweed bedstraw, Galium aparine); assay: Test C preemergence, plant response rating
# [2] = tested on: pigweed (Amaranthus retroflexus); assay: Test C preemergence, plant response rating; settings: Preemergence
# [3] = tested on: barnyardgrass (Echinochloa crus-galli); assay: Test C postemergence, plant response rating; settings: for Plant response rating, Barnyardgrass: scale 0 to 100; for Barnyardgrass plant response rating: scale 0 to 100 (0 no effect, 100 complete control)
# Outline: (§1)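 Pre-emergence: seeds sown in loam soil–sand blend or silt loam and sprayed with test chemicals in a non-phytotoxic solvent mixture with surfactant. Post-emergence: plants 2 to 18 cm (1- to 4-leaf stage) in peat-based potting medium, same formulation. Greenhouse 13 to 15 d; visual rating 0 (no effect) to 100 (complete control) versus controls.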
# [4] = tested on: blackgrass (Alopecurus myosuroides); assay: Test C postemergence, plant response rating; settings: for Plant response rating, Blackgrass: scale 0 to 100; for Blackgrass plant response rating: scale 0 to 100 (0 no effect, 100 complete control)
# Outline: as §1
# corn (Zea mays) = assay: Test C postemergence, plant response rating; settings: for Plant response rating, Corn: scale 0 to 100; for Corn plant response rating: scale 0 to 100 (0 no effect, 100 complete control)
# Outline: as §1
# [5] = tested on: crabgrass, large (large crabgrass, Digitaria sanguinalis); assay: Test C postemergence, plant response rating; settings: for Plant response rating, Crabgrass, Large: scale 0 to 100; for Crabgrass, Large plant response rating: scale 0 to 100 (0 no effect, 100 complete control)
# Outline: as §1
# [6] = tested on: foxtail, giant (giant foxtail, Setaria faberii); assay: Test C postemergence, plant response rating; settings: for Plant response rating, Foxtail, Giant: scale 0 to 100; for Foxtail, Giant plant response rating: scale 0 to 100 (0 no effect, 100 complete control)
# Outline: as §1
# [7] = tested on: galium (catchweed bedstraw, Galium aparine); assay: Test C postemergence, plant response rating; settings: for Plant response rating, Galium: scale 0 to 100; for Galium plant response rating: scale 0 to 100 (0 no effect, 100 complete control)
# Outline: as §1
# [8] = tested on: lambsquarters (Chenopodium album); assay: Test C postemergence, plant response rating; settings: for Plant response rating, Lambsquarters: scale 0 to 100; for Lambsquarters plant response rating: scale 0 to 100 (0 no effect, 100 complete control)
# Outline: as §1
# [9] = tested on: nutsedge, yellow (yellow nutsedge, Cyperus esculentus); assay: Test C postemergence, plant response rating; settings: for Plant response rating, Nutsedge, Yellow: scale 0 to 100; for Nutsedge, Yellow plant response rating: scale 0 to 100 (0 no effect, 100 complete control)
# Outline: as §1
# [10] = tested on: oat, wild (wild oat Avena fatua); assay: Test C postemergence, plant response rating; settings: for Plant response rating, Oat, Wild: scale 0 to 100; for Oat, Wild plant response rating: scale 0 to 100 (0 no effect, 100 complete control)
# Outline: as §1
# [11] = tested on: oilseed rape (Brassica napus); assay: Test C postemergence, plant response rating; settings: for Plant response rating, Oilseed Rape: scale 0 to 100; for Oilseed Rape plant response rating: scale 0 to 100 (0 no effect, 100 complete control)
# Outline: as §1
# [12] = tested on: ragweed (common ragweed, Ambrosia elatior); assay: Test C postemergence, plant response rating; settings: for Plant response rating, Ragweed: scale 0 to 100; for Ragweed plant response rating: scale 0 to 100 (0 no effect, 100 complete control)
# Outline: as §1
# [13] = tested on: ryegrass, Italian (Italian ryegrass, Lolium multiflorum); assay: Test C postemergence, plant response rating; settings: for Plant response rating, Ryegrass, Italian: scale 0 to 100; for Ryegrass, Italian plant response rating: scale 0 to 100 (0 no effect, 100 complete control)
# Outline: as §1
# soybean (Glycine max) = assay: Test C postemergence, plant response rating; settings: for Plant response rating, Soybean: scale 0 to 100; for Soybean plant response rating: scale 0 to 100 (0 no effect, 100 complete control)
# Outline: as §1
# [14] = tested on: velvetleaf (Abutilon theophrasti); assay: Test C postemergence, plant response rating; settings: for Plant response rating, Velvetleaf: scale 0 to 100; for Velvetleaf plant response rating: scale 0 to 100 (0 no effect, 100 complete control)
# Outline: as §1
# [15] = tested on: waterhemp (common waterhemp, Amaranthus rudis); assay: Test C postemergence, plant response rating; settings: for Plant response rating, Waterhemp: scale 0 to 100; for Waterhemp plant response rating: scale 0 to 100 (0 no effect, 100 complete control)
# Outline: as §1
# [16] = tested on: wheat (winter wheat, Triticum aestivum); assay: Test C postemergence, plant response rating; settings: for Plant response rating, Wheat: scale 0 to 100; for Wheat plant response rating: scale 0 to 100 (0 no effect, 100 complete control)
# Outline: as §1
compound,measurement,setting,value
O=C(OCCC(F)(F)F)c1c(Br)cccc1Oc1ncc(Br)cn1 [Compound 33],"Plant response rating, Galium","[1]; 16 g ai/ha, scale 0 to 100",0
same,"Plant response rating, Galium","[1]; 31 g ai/ha, scale 0 to 100",60
same,"Plant response rating, Galium","[1]; 62 g ai/ha, scale of 0 to 100",60
same,"Plant response rating, Galium","[1]; 125 g ai/ha, scale of 0 to 100",95
same,"Plant response rating, Pigweed","[2]; 125 g ai/ha, scale of 0 to 100",100
same,"Plant response rating, Pigweed","[2]; 16 g ai/ha, scale 0 to 100",80
same,"Plant response rating, Pigweed","[2]; 31 g ai/ha, scale 0 to 100",100
same,"Plant response rating, Pigweed","[2]; 62 g ai/ha, scale 0 to 100",100
same,"Plant response rating, Barnyardgrass",[3]; 16 g ai/ha,5
same,"Plant response rating, Barnyardgrass",[3]; 31 g ai/ha,5
same,Barnyardgrass plant response rating,[3]; 62 g ai/ha,10
same,Barnyardgrass plant response rating,[3]; 125 g ai/ha,25
same,"Plant response rating, Blackgrass",[4]; 16 g ai/ha,5
same,"Plant response rating, Blackgrass",[4]; 31 g ai/ha,5
same,Blackgrass plant response rating,[4]; 62 g ai/ha,10
same,Blackgrass plant response rating,[4]; 125 g ai/ha,20
same,"Plant response rating, Corn",corn (Zea mays); 16 g ai/ha,20
same,"Plant response rating, Corn",corn (Zea mays); 31 g ai/ha,25
same,Corn plant response rating,corn (Zea mays); 62 g ai/ha,25
same,Corn plant response rating,corn (Zea mays); 125 g ai/ha,30
same,"Plant response rating, Crabgrass, Large",[5]; 16 g ai/ha,5
same,"Plant response rating, Crabgrass, Large",[5]; 31 g ai/ha,5
same,"Crabgrass, Large plant response rating",[5]; 62 g ai/ha,10
same,"Crabgrass, Large plant response rating",[5]; 125 g ai/ha,15
same,"Plant response rating, Foxtail, Giant",[6]; 16 g ai/ha,5
same,"Plant response rating, Foxtail, Giant",[6]; 31 g ai/ha,10
same,"Foxtail, Giant plant response rating",[6]; 62 g ai/ha,10
same,"Foxtail, Giant plant response rating",[6]; 125 g ai/ha,20
same,"Plant response rating, Galium",[7]; 16 g ai/ha,50
same,"Plant response rating, Galium",[7]; 31 g ai/ha,70
same,Galium plant response rating,[7]; 62 g ai/ha,80
same,Galium plant response rating,[7]; 125 g ai/ha,85
same,"Plant response rating, Lambsquarters",[8]; 16 g ai/ha,60
same,"Plant response rating, Lambsquarters",[8]; 31 g ai/ha,70
same,Lambsquarters plant response rating,[8]; 62 g ai/ha,80
same,Lambsquarters plant response rating,[8]; 125 g ai/ha,90
same,"Plant response rating, Nutsedge, Yellow",[9]; 16 g ai/ha,5
same,"Plant response rating, Nutsedge, Yellow",[9]; 31 g ai/ha,5
same,"Nutsedge, Yellow plant response rating",[9]; 62 g ai/ha,5
same,"Nutsedge, Yellow plant response rating",[9]; 125 g ai/ha,10
same,"Plant response rating, Oat, Wild",[10]; 16 g ai/ha,5
same,"Plant response rating, Oat, Wild",[10]; 31 g ai/ha,10
same,"Oat, Wild plant response rating",[10]; 62 g ai/ha,25
same,"Oat, Wild plant response rating",[10]; 125 g ai/ha,30
same,"Plant response rating, Oilseed Rape",[11]; 16 g ai/ha,35
same,"Plant response rating, Oilseed Rape",[11]; 31 g ai/ha,45
same,Oilseed Rape plant response rating,[11]; 62 g ai/ha,55
same,Oilseed Rape plant response rating,[11]; 125 g ai/ha,95
same,"Plant response rating, Ragweed",[12]; 16 g ai/ha,40
same,"Plant response rating, Ragweed",[12]; 31 g ai/ha,30
same,Ragweed plant response rating,[12]; 62 g ai/ha,50
same,Ragweed plant response rating,[12]; 125 g ai/ha,60
same,"Plant response rating, Ryegrass, Italian",[13]; 16 g ai/ha,0
same,"Plant response rating, Ryegrass, Italian",[13]; 31 g ai/ha,5
same,"Ryegrass, Italian plant response rating",[13]; 62 g ai/ha,5
same,"Ryegrass, Italian plant response rating",[13]; 125 g ai/ha,30
same,"Plant response rating, Soybean",soybean (Glycine max); 16 g ai/ha,25
same,"Plant response rating, Soybean",soybean (Glycine max); 31 g ai/ha,65
same,Soybean plant response rating,soybean (Glycine max); 62 g ai/ha,30
same,Soybean plant response rating,soybean (Glycine max); 125 g ai/ha,55
same,"Plant response rating, Velvetleaf",[14]; 16 g ai/ha,25
same,"Plant response rating, Velvetleaf",[14]; 31 g ai/ha,50
same,Velvetleaf plant response rating,[14]; 62 g ai/ha,65
same,Velvetleaf plant response rating,[14]; 125 g ai/ha,75
same,"Plant response rating, Waterhemp",[15]; 16 g ai/ha,90
same,"Plant response rating, Waterhemp",[15]; 31 g ai/ha,80
same,Waterhemp plant response rating,[15]; 62 g ai/ha,100
same,Waterhemp plant response rating,[15]; 125 g ai/ha,100
same,"Plant response rating, Wheat",[16]; 16 g ai/ha,0
same,"Plant response rating, Wheat",[16]; 31 g ai/ha,0
same,Wheat plant response rating,[16]; 62 g ai/ha,0
same,Wheat plant response rating,[16]; 125 g ai/ha,5
